Data as given in article PMC6336804, “Identification of selective inhibitors of Helicobacter pylori IMPDH as a targeted therapy for the infection” (Scientific Reports, 2019).
Read-outs that look alike come from different tables or passages of the source.

How the values were obtained:
HpIMPDH [1] = target: T1, HpIMPDH (Helicobacter pylori, UniProt P56088); assay: HpIMPDH enzyme inhibition assay (NADH fluorescence); format: biochemical
T1 construct: His tag; made in house; host or cells: E. coli Rosetta(DE3) pLysS, pET-28a(+)
T1 sequence (P56088 whole entry): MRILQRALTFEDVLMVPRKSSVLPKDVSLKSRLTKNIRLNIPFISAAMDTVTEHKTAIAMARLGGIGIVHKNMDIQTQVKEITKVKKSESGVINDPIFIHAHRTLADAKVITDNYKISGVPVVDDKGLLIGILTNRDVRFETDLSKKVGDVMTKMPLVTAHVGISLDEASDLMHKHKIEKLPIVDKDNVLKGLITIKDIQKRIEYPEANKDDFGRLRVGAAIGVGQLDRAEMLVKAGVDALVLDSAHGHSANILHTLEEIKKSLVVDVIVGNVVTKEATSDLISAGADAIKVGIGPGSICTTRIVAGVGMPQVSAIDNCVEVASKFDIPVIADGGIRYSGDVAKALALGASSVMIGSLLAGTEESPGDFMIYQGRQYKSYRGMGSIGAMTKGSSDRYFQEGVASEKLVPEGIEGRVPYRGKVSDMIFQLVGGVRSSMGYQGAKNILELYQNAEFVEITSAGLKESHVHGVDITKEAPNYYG
Method: To calculate the IC50 values, the initial velocity of the reaction is plotted against concentrations of the small molecule inhibitor, and the data is fitted with the Hill equation.
Similar to enzyme kinetic studies, these were also determined by monitoring NADH concentration through the fluorescence measurement. In the presence of IMPDH inhibitor, decreased catalytic activity of the enzyme reduces the formation of NADH. […] The production of NADH was monitored by measuring fluorescence at 440 nm when excited at 340 nm using PerkinElmer EnVision Multilabel Reader (Perkin Elmer, Inc., MA, USA) at 37 °C. In these assays C91 was used as a positive control.
IC50 values for all compounds were calculated with the help of software GraphPad Prism. The equation applied was:2 Y=Bottom+(Top−Bottom)/1+10^((LogIC50−X)∗HillSlope)

HpIMPDH [2] = target: T1, HpIMPDH; assay: Mechanism of HpIMPDH inhibition, kinetic studies with varying IMP or NAD+ (Lineweaver-Burk); format: biochemical; conditions: for Conclusion: type of inhibition versus IMP / Conclusion: type of inhibition versus NAD+: Table S4
From the text: There are three important mechanisms of enzyme inhibition, viz. competitive, non-competitive and uncompetitive inhibition. […] The initial velocity data were plotted using Lineweaver-Burk equation using GraphPad Prism.
The data is plotted using the Lineweaver-Burk equation.

AgIMPDH = system: AgIMPDH; design: method as in ref 5 (a number printed in a supplementary file, which may have a reference list of its own: not looked up in the article's list); conditions: AgIMPDH ref 5; cited from earlier work
HsIMPDH-II = system: HsIMPDH-II; design: method as in ref 4 (a number printed in a supplementary file, which may have a reference list of its own: not looked up in the article's list); conditions: HsIMPDH-II ref 4; cited from earlier work
HpIMPDH [3] = target: T1, HpIMPDH; format: biochemical; conditions: 100 nM enzyme
From the text: Before carrying out enzymatic assays, it is important to determine the enzyme activity.
The initial velocity data was fitted using Michaelis–Menten equation (1) with the help of GraphPad Prism to calculate enzyme kinetic parameters.1 V=Vmax[S]/KM+[S] where, V is velocity, Vmax is maximum velocity, [S] is substrate concentration, KM is Michaelis–Menten constant.

HsIMPDH-I = system: HsIMPDH-I; design: method as in ref 4 (a number printed in a supplementary file, which may have a reference list of its own: not looked up in the article's list); conditions: HsIMPDH-I ref 4; cited from earlier work
BbIMPDH = system: BbIMPDH; design: method as in ref 10 (a number printed in a supplementary file, which may have a reference list of its own: not looked up in the article's list); conditions: BbIMPDH ref 10; cited from earlier work
PaIMPDH = PaIMPDH ref 7; cited from earlier work
HpIMPDH [4] = target: T1, HpIMPDH; design: method as in ref 3 (a number printed in a supplementary file, which may have a reference list of its own: not looked up in the article's list); conditions: previously reported HpIMPDH data ref 3; cited from earlier work
SpIMPDH = system: SpIMPDH; design: method as in ref 9 (a number printed in a supplementary file, which may have a reference list of its own: not looked up in the article's list); conditions: SpIMPDH ref 9; cited from earlier work
TfIMPDH = TfIMPDH ref 6; cited from earlier work
CpIMPDH = system: CpIMPDH; design: method as in ref 8 (a number printed in a supplementary file, which may have a reference list of its own: not looked up in the article's list); conditions: CpIMPDH ref 8; cited from earlier work
[5] = IC50, HpIMPDH inhibition, 100 nM HpIMPDH, NAD+ 300 µM, IMP 250 µM

## O=C(Cn1c(-c2ccccn2)nc2ccccc21)Nc1ccc2ccccc2c1 [Compound 1, reference compound]
HpIMPDH [1]; [5]
  IC50: 155 ± 82 nM
HpIMPDH [2]
  Mechanism of HpIMPDH inhibition against both IMP and NAD+: uncompetitive
  Conclusion: type of inhibition versus IMP: Un-competitive inhibition
  Conclusion: type of inhibition versus NAD+: Un-competitive inhibition

## O=C(Cn1cc(C(=O)Nc2cccnc2)c2ccccc21)Nc1ccc(Br)cc1 [Compound 2]
HpIMPDH [1]; HpIMPDH
  IC50 value (in words): micromolar range
HpIMPDH [1]; [5]
  IC50: 1890 ± 420 nM
HpIMPDH [1]; IC50, inhibition profile of indole based compounds, Table S3
  IC50: 1880 nM
HpIMPDH [2]
  Mechanism of HpIMPDH inhibition against both IMP and NAD+: noncompetitive inhibition
  Conclusion: type of inhibition versus IMP: Non-competitive inhibition
  Conclusion: type of inhibition versus NAD+: Non-competitive inhibition

## NC(=O)c1ccc[n+]([C@@H]2O[C@H](COP(=O)([O-])OP(=O)(O)OC[C@H]3O[C@@H](n4cnc5c(N)ncnc54)[C@H](O)[C@@H]3O)[C@@H](O)[C@H]2O)c1 [NAD^+]
AgIMPDH
  Km: 280 ± 24.7 µM
HsIMPDH-II
  Km: 46 ± 2.8 µM
HpIMPDH [3]
  kcat of HpIMPDH for the substrate: 5.96 ± 0.53 S^−1
HpIMPDH [3]; varying NAD+, IMP 500 µM constant
  Km: 76.4 ± 1.09 µM
HsIMPDH-I
  Km: 32 ± 3.4 µM
BbIMPDH
  Km: 1.1 ± 0.16 mM
PaIMPDH
  Km: 1.76 ± 0.109 mM
HpIMPDH [4]
  Km: 73 ± 6 µM
SpIMPDH
  Km: 1.18 ± 0.4 mM
TfIMPDH
  Km: 150 ± 30 µM
CpIMPDH
  Km: 150 ± 20 µM
